Assay results published in US10517863B2, “Trilobine and its natural analogs for use as a drug” (PIERRE FABRE MEDICAMENT, priority 2015, dated 2019).

Tested on: P15 promoter in leukaemia KG1 cells
Test: P15 (CDKN2B) promoter demethylation, bisulfite PCR cloning-sequencing
Assay type: cell-based, human
Conditions: after 3 days, at 0.32 μM
Experimental: Cancer cell lines (colon HCT116 or leukaemia KG1) were treated with the compounds as indicated in the Data Tables and then analysed as following.
DNA was isolated from cultured cells using the DNeasy Blood and Tissue Kit according to the manufacturer's specifications (Qiagen). DNA bisulphite conversion was performed on 2 μg of DNA using the EZ DNA Methylation-Gold Kit according to the manufacturer's specifications (Zymo Research) and bisulfited DNA was eluted with 10 μL of water. Two different techniques were used to analyse the DNA methylation profile after bisulfite conversion of genomic DNA: (A) cloning and sequencing or (B) COBRA. The primers for each promoter are specified in the Table 3.
Sequencing of bisulfite-treated DNA allowing resolution of the methylation state of every cytosine in the target sequence, at single molecule resolution, is considered as the “gold standard” for DNA methylation analysis.
Bisulfite-specific primers with a minimum length of 18 bp were designed using Primer 3 program. […]
PCR amplicons were cloned with the StrataClone Ultra Blunt PCR Cloning Kit (Agilent Technologies), according to the manufacturers' instructions and up to 24 clones were picked for sequencing. […] Electrophoregram files and methylation signals at a given CpG site were quantified using the BISMA software as described in the literature (Rohde et al. BMC Bioinformatics 2010, 11, 230).

COc1ccc2cc1Oc1ccc(cc1)C[C@@H]1NCCc3cc(OC)c4c(c31)Oc1cc3c(cc1O4)CCN(C)[C@H]3C2 [Compound 1, Trilobine]
Demethylation (COBRA) P15/KG1: −25% after 3 days
